This passage reports IC50 and EC50 results from patent US11440923B2, “Substituted macrocyclic indole derivatives” (Bayer Aktiengesellschaft, priority 2017, dated 2022).

pEC50, pIC50: −log10 of the molar value. Structures can show the parent of a compound that is named as a salt. Where two headings read alike, the source gives them in different places. Bounds are passed on as bounds.

Holding throughout (type): cell-based
The test system of data set [1] is SUDHL10 cells. Description: Induction of cytotoxicity in SUDHL10 cells (Assay 6). The gist of the method:
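SUDHL5 and SUDHL10 cells plated and held overnight at 37° C, then incubated 5 h at 37° C with compound. Viability measured by CellTiter-Glo luminescence after 15 min shaking at room temperature. Cell-free medium wells served as control.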

A further data set concerns AMO-1 cells. Briefly: Antiproliferation assay AMO-1 (Assay 7). Particulars: Homo sapiens, AMO1, 72 h, 72 h, CellTiter-Glo; read-out: Antiproli AMO-1 IC50 median. The gist of the method:
(§1)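 Luminescent viability signal (CellTiter-Glo) after 72 h of treatment served as read-out. IC50 values were derived with day 0 luminescence as CI and DMSO wells as C0.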
In general terms: Cellular ATP, detected with luciferase, serves as a proxy for viable cell number.

Data set [2] has as its system SUDHL10 cells. Briefly: Induction of caspase-3/7 activity in SUDHL10 cells (Assay 4). The method in brief:
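Read-out: Caspase-Glo 3/7 luminescence (1 h, 37 °C) after cells, plated overnight, were treated with compounds for 3 h at 37 °C. Signal corrected for cell-free medium background and expressed relative to DMSO control mean.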

The next data set deals with SUDHL5 cells. Briefly: Antiproliferation assay SUDHL5 (Assay 7). The gist of the method: as §1
The mark [3] stands for this setting: Homo sapiens, SU-DHL10, 5 h, 5 h, CellTiter-Glo; read-out: Cytotox SUDHL10 IC50 (median).
Setting [4] is: Homo sapiens, SU-DHL10, 3 h, caspase-3/7 induction, 3 h; read-out: Caspase SUDHL10 EC50 (median).
Setting [5] is: Homo sapiens, SU-DHL-5, 72 h, 72 h, CellTiter-Glo; read-out: Antiproli SUDHL5 IC50 (median).
[6] abbreviates: read-out: Cytotox SUDHL10 IC50 (median); 5 h, CellTiter-Glo.
Where [7] appears, read: read-out: Caspase SUDHL10 EC50 (median); caspase-3/7 induction, 3 h.
The mark [8] stands for this setting: read-out: Antiproli SUDHL5 IC50 (median); 72 h, CellTiter-Glo.

A word on the pIC50: it is the negative decadic logarithm of the IC50, by convention in mol/L. The pEC50 is the negative decadic logarithm of the EC50, by convention in mol/L. As to `CCc1c2c(nn1C)C(CCN1CCOCC1)OCCCCn1c(C(=O)O)c(CCCOc3cccc4ccccc34)c3ccc(F)c-2c31` (racemic) [Example 10, (rac)-3-ethyl-4-fluoro-2-methyl-15-[2-(morpholin-4-yl)ethyl]-7-[3-(naphthalen-1-yloxy)propyl]-2,10,11,12,13,15-hexahydropyrazolo[4′,3′:9,10][1,6]oxazacycloundecino[8,7,6-hi]indole-8-carboxylic Acid], the pIC50 is 6.52 with SUDHL10 cells [1] (setting [3]), 6.39 with AMO-1 cells and 6.80 in the data set on SUDHL5 cells (setting [5]). Further, the pEC50 in the data set with SUDHL10 cells [2] (setting [4]) was 6.66.

As to `Cc1c2c(nn1C)C(CCN1CCOCC1)OCCCCn1c(C(=O)O)c(CCCOc3cccc4ccccc34)c3ccc(Cl)c-2c31` (racemic) [Example 13, (rac)-4-chloro-2,3-dimethyl-15-[2-(morpholin-4-yl)ethyl]-7-{3-[(naphthalen-1-yl)oxy]propyl}-2,10,11,12,13,15-hexahydropyrazolo[4′,3′:9,10][1,6]oxazacycloundecino[8,7,6-hi]indole-8-carboxylic Acid], the pIC50 in the data set with SUDHL10 cells [1] (setting [3]) was 6.68; in the data set on AMO-1 cells, 6.72; in the data set on SUDHL5 cells (setting [5]) it was 6.96. In addition, the pEC50 with SUDHL10 cells [2] (setting [4]) is 6.85.

Turning to `Cc1c2c(nn1C)C(CCN1CCOCC1)OCCCCn1c(C(=O)O)c(CCCOc3cccc4cc(F)ccc34)c3ccc(Cl)c-2c31` (racemic) [Example 16, (rac)-4-chloro-7-{3-[(6-fluoronaphthalen-1-yl)oxy]propyl}-2,3-dimethyl-15-[2-(morpholin-4-yl)ethyl]-2,10,11,12,13,15-hexahydropyrazolo[4′,3′:9,10][1,6]oxazacycloundecino[8,7,6-hi]indole-8-carboxylic Acid], the results for the pIC50 in the data set on SUDHL10 cells [1] (setting [3]), with AMO-1 cells and in the data set on SUDHL5 cells (setting [5]) were 7.66, 7.32 and 7.72, respectively. Besides, the pEC50 in the data set on SUDHL10 cells [2] (setting [4]) was 7.72.

Consider `Cc1c2c(nn1C)C(CCN1CCOCC1)OCCCCn1c(C(=O)O)c(CCCOc3cccc4cc(F)ccc34)c3ccc(F)c-2c31` (racemic) [Example 19, (rac)-4-fluoro-7-{3-[(6-fluoronaphthalen-1-yl)oxy]propyl}-2,3-dimethyl-15-[2-(morpholin-4-yl)ethyl]-2,10,11,12,13,15-hexahydropyrazolo[4′,3′:9,10][1,6]oxazacycloundecino[8,7,6-hi]indole-8-carboxylic Acid], for which the pIC50 in the data set with SUDHL10 cells [1] (setting [3]) is 6.96; in the data set on AMO-1 cells, 6.99; in the data set with SUDHL5 cells (setting [5]), 7.11. In the data set with SUDHL10 cells [2] (setting [4]), the pEC50 was 7.10.

For `CCc1c2c(nn1C)C(CCN1CCOCC1)OCCCCn1c(C(=O)O)c(CCCOc3cccc4cc(F)ccc34)c3ccc(Cl)c-2c31` (racemic) [Example 22, (rac)-4-chloro-3-ethyl-7-{3-[(6-fluoronaphthalen-1-yl)oxy]propyl}-2-methyl-15-[2-(morpholin-4-yl)ethyl]-2,10,11,12,13,15-hexahydropyrazolo[4′,3′:9,10][1,6]oxazacycloundecino[8,7,6-hi]indole-8-carboxylic Acid], the results for the pIC50 with SUDHL10 cells [1] (setting [3]), with AMO-1 cells and in the data set with SUDHL5 cells (setting [5]) were 7.55, 7.49 and 7.89, respectively. In addition, in the data set with SUDHL10 cells [2] (setting [4]), the pEC50 was 7.70.

As to `CCC1OCCCCn2c(C(=O)O)c(CCCOc3cccc4ccccc34)c3ccc(Cl)c(c32)-c2c1nn(C)c2C` (racemic) [Example 25, (rac)-4-chloro-15-ethyl-2,3-dimethyl-7-{3-[(naphthalen-1-yl)oxy]propyl}-2,10,11,12,13,15-hexahydropyrazolo[4′,3′:9,10][1,6]oxazacycloundecino[8,7,6-hi]indole-8-carboxylic Acid], the pIC50 with SUDHL10 cells [1] (setting [3]) was 5.06; in the data set on AMO-1 cells, 5.18; with SUDHL5 cells (setting [5]), 5.64. In the data set on SUDHL10 cells [2] (setting [4]), the pEC50 was 5.00.

`Cc1c2c(nn1C)C(CCO)OCCCCn1c(C(=O)O)c(CCCOc3cccc4ccccc34)c3ccc(Cl)c-2c31` (racemic) [Example 26, (rac)-4-chloro-15-(2-hydroxyethyl)-2,3-dimethyl-7-{3-[(naphthalen-1-yl)oxy]propyl}-2,10,11,12,13,15-hexahydropyrazolo[4′,3′:9,10][1,6]oxazacycloundecino[8,7,6-hi]indole-8-carboxylic Acid]: the figures for the pIC50 in the data set with SUDHL10 cells [1] (setting [3]), in the data set on AMO-1 cells and with SUDHL5 cells (setting [5]) were 6.06, 6.24 and 6.39, respectively. Also, the pEC50 in the data set on SUDHL10 cells [2] (setting [4]) is 6.01.

With `CCc1c2c(nn1C)C(C(F)(F)F)OCCCCn1c(C(=O)O)c(CCCOc3cccc4ccccc34)c3ccc(Cl)c-2c31` (racemic) [Example 27, (rac)-4-Chloro-3-ethyl-2-methyl-7-{3-[(naphthalen-1-yl)oxy]propyl}-15-(trifluoromethyl)-2,10,11,12,13,15-hexahydropyrazolo[4′,3′:9,10][1,6]oxazacycloundecino[8,7,6-hi]indole-8-carboxylic Acid], the pIC50 with SUDHL10 cells [1] (setting [3]) is 5.02; with AMO-1 cells it was 4.92; in the data set with SUDHL5 cells (setting [5]), 6.77. Moreover, the pEC50 in the data set on SUDHL10 cells [2] (setting [4]) is 5.18.

For the compound `Cc1c2c(nn1C)C(C1CC1)OCCCCn1c(C(=O)O)c(CCCOc3cccc4ccccc34)c3ccc(Cl)c-2c31` (racemic) [Example 28, (rac)-4-Chloro-15-cyclopropyl-2,3-dimethyl-7-{3-[(naphthalen-1-yl)oxy]propyl}-2,10,11,12,13,15-hexahydropyrazolo[4′,3′:9,10][1,6]oxazacycloundecino[8,7,6-hi]indole-8-carboxylic Acid], the pIC50 in the data set on SUDHL10 cells [1] (setting [3]) was 5.08; in the data set with AMO-1 cells it was 4.96; in the data set on SUDHL5 cells (setting [5]), 5.57. The pEC50 in the data set with SUDHL10 cells [2] (setting [4]) was 5.14.

Turning to `COCCC1OCCCCn2c(C(=O)O)c(CCCOc3cccc4ccccc34)c3ccc(Cl)c(c32)-c2c1nn(C)c2C` (racemic) [Example 37, (rac)-4-chloro-(15-rac)-(2-methoxyethyl)-2,3-dimethyl-7-{3-[(naphthalen-1-yl)oxy]propyl}-2,10,11,12,13,15-hexahydropyrazolo[4′,3′:9,10][1,6]oxazacycloundecino[8,7,6-hi]indole-8-carboxylic Acid], the negative-log IC50 (pIC50) is 6.44 with SUDHL10 cells [1] (setting [3]), 6.27 in the data set with AMO-1 cells and 6.29 with SUDHL5 cells (setting [5]). Besides, the pEC50 with SUDHL10 cells [2] (setting [4]) was 6.68.

For the compound `CCc1c2c(nn1C)C(CCOC)OCCCCn1c(C(=O)O)c(CCCOc3cccc4cc(F)ccc34)c3ccc(Cl)c-2c31` (racemic) [Example 41, (rac)-4-chloro-3-ethyl-7-{3-[(6-fluoronaphthalen-1-yl)oxy]propyl}-(15-rac)-(2-methoxyethyl)-2-methyl-2,10,11,12,13,15-hexahydropyrazolo[4′,3′:9,10][1,6]oxazacycloundecino[8,7,6-hi]indole-8-carboxylic Acid], the pIC50 is 6.80 in the data set with SUDHL10 cells [1] (setting [3]), 6.87 with AMO-1 cells and 6.80 in the data set with SUDHL5 cells (setting [5]). Also, the pEC50 in the data set with SUDHL10 cells [2] (setting [4]) was 6.89.

Take `CCc1c2c(nn1C)C(CCO)OCCCCn1c(C(=O)O)c(CCCOc3cccc4cc(F)ccc34)c3ccc(Cl)c-2c31` (racemic) [Example 44, (rac)-4-chloro-3-ethyl-7-{3-[(6-fluoronaphthalen-1-yl)oxy]propyl}-(15-rac)-(2-hydroxyethyl)-2-methyl-2,10,11,12,13,15-hexahydropyrazolo[4′,3′:9,10][1,6]oxazacycloundecino[8,7,6-hi]indole-8-carboxylic Acid]: the pIC50 with SUDHL10 cells [1] (setting [3]) was 6.70; in the data set on AMO-1 cells it was 6.79; with SUDHL5 cells (setting [5]), 6.85. For the same compound, the pEC50 with SUDHL10 cells [2] (setting [4]) is 6.82.

Consider `Cc1c2c(nn1C)C(C)OCCCCn1c(C(=O)O)c(CCCOc3cccc4ccccc34)c3cccc-2c31` (single isomer, unassigned; stereoisomer 1) [Example 2, 2,3,15-trimethyl-7-[3-(naphthalen-1-yloxy)propyl]-2,10,11,12,13,15-hexahydropyrazolo[4′,3′:9,10][1,6]oxazacycloundecino[8,7,6-hi]indole-8-carboxylic Acid Trifluoroacetic Acid Salt (Stereoisomer 1)], for which the pIC50 is 5.60 in the data set with SUDHL10 cells [1] (setting [6]) and 5.46 with SUDHL5 cells (setting [8]). Further, in the data set with SUDHL10 cells [2] (setting [7]), the pEC50 was 5.60.

Consider `Cc1c2c(nn1C)C(C)OCCCCn1c(C(=O)O)c(CCCOc3cccc4ccccc34)c3cccc-2c31` (single isomer, unassigned; stereoisomer 2) [Example 3, 2,3,15-trimethyl-7-[3-(naphthalen-1-yloxy)propyl]-2,10,11,12,13,15-hexahydropyrazolo[4′,3′:9,10][1,6]oxazacycloundecino[8,7,6-hi]indole-8-carboxylic Acid Trifluoroacetic Acid Salt (Stereoisomer 2)], for which the pIC50 was 4.59 with SUDHL10 cells [1] (setting [6]) and 4.70 in the data set with SUDHL5 cells (setting [8]). Further, the pEC50 in the data set on SUDHL10 cells [2] (setting [7]) is under 4.48.

Turning to `Cc1c2c(nn1C)C(CCN1CCOCC1)OCCCCn1c(C(=O)O)c(CCCOc3cccc4ccccc34)c3cccc-2c31` (single isomer, unassigned; stereoisomer 2) [Example 6, 2,3-dimethyl-15-[2-(morpholin-4-yl)ethyl]-7-[3-(naphthalen-1-yloxy)propyl]-2,10,11,12,13,15-hexahydropyrazolo[4′,3′:9,10][1,6]oxazacycloundecino[8,7,6-hi]indole-8-carboxylic Acid (Stereoisomer 2)], the pIC50 with SUDHL10 cells [1] (5 h, CellTiter-Glo; read-out: Cytotox SUDHL10 IC50 (median)) is 4.54; in the data set with SUDHL5 cells (72 h, CellTiter-Glo; read-out: Antiproli SUDHL5 IC50 (median)), 5.09. The pEC50 with SUDHL10 cells [2] (caspase-3/7 induction, 3 h; read-out: Caspase SUDHL10 EC50 (median)) was 4.51.
